Patent US20150305333A1, “USE OF GLUCOSAMINE AMIDES AS PLANT GROWTH AND YIELD ENHANCERS” (PIONEER HI-BRED INTERNATIONAL, INC., priority 2012, published 2015)

Key:
soybean seeds = assay: Petri dish seed germination assay, soybean; format: in vivo
Protocol: A series of Petri dish seed assays was conducted to evaluate the effects NPG on the seed germination rates of corn, soybean, and canola seeds subjected to cold stress, salt stress and non-stressed conditions (salt stress only for canola). Assays were performed with ten replications of ten seeds/plate (100 total seeds). NPG was applied to seeds at the specified concentrations prior to being placed in Petri plates. Seeds designated for Salt Stress Experiments 1 & 2 were placed in Petri dishes containing a 100 mM NaCl solution and incubated at 21° C.-22° C. in the dark. Cold stress Petri dishes were incubated at 15° C. in the dark. Untreated Controls were incubated at 21° C.-22° C. in the dark as were seeds utilized in the separately conducted non-stressed germination assays. Data was recorded as percent germination at designated times after plating. Statistical analyses were performed using one-way Anova and Kruskal-Wallis one-way analysis of variance on rank combined with Dunn's all pairwise multiple comparison procedure (α=0.05).

[1] = test system: Shepody potatoes (Solanum tuberosum); assay: Potato field trial 2010: emergence, flowering, marketable yield; format: in vivo; details: for Marketable Potato Yield for One Row of Plot: one 8 m row, fresh weight
Protocol: A potato field trial was conducted to evaluate the effects of NPG on plant emergence, flowering and yield in Shepody potatoes (Solanum tuberosum) planted near Thorndale, Ontario, Canada, in 2010. Seed treatments included an Untreated Control, three concentrations of NPG and three concentrations of an LCO derived from Bradyrhizobium japonicum to serve as a positive control. The LCO was provided by Dr. Don Smith (McGill University, Montreal, Canada) using the basic method described in Soulemanov, A., et al., in Microbiol. Res., 157: 25-28 (2005). Aqueous solutions of NPG and LCO were applied at 10^−6M, 10^−7M and 10^−8M to seed pieces using a spray nozzle and left to soak on a plastic sheet for 20 minutes. The seed pieces were beginning to sprout when planted on June 8th in a loam composed of 41% sand, 39% silt and 20% clay and 4.5% organic matter.
Potatoes were planted at a rate of 33,300 seed pieces/ha to a depth of 20 cm and hilled using a tractor mounted potato hiller. Weeds were controlled using three L/ha of 40.6 wt % linuron. Insects were controlled using 250 ml/ha 18.4 wt % chlorantraniprole, and disease was controlled using a tank mix of 1.6 kg/ha 75 wt % mancozeb and 225 g/ha 60 wt % cymoxanil fungicides. Before harvest, plants were sprayed twice (seven days apart) with 39.5 wt % diquat dibromide herbicide at a rate of 2 L/ha. All of the products used are industry standards and representative of what is used in commercial production.
The trial was conducted using a randomized complete block design with a plot size of 2 m by 8 m with a 100 cm row spacing, 30 cm plant spacing and four replications Due to wet weather, the soil was damp and cloddy during the planting and hilling process.
Marketable potato yield was determined by harvesting one entire 8 m row of the plot (Table 3). The Untreated Control row with the highest emergence was harvested. Yields were not corrected for differences in emergence rates. The 10^−6 M and 10^−7 M NPG treatments and the 10^−8 M LCO treatment provided a statistically significant increase in marketable fresh weight yield compared to the Untreated Control.

SMILES: CCCCCCC=CCCCCCCCC(=O)NC1C(OC)OC(CO)C(O)C1O [NPG, Methyl 2-deoxy-2-N-(hexadece-9,10-cis-eneoyl)-β-D-glucopyranoside]
- Soybean Seed Germination (soybean seeds; Cold Stress (15° C.), 10^−6M × 4 Times, 30 HAP): 29a %
- Soybean Seed Germination (soybean seeds; Cold Stress (15° C.), 10^−6M × 4 Times, 36 HAP): 58a %
- Soybean Seed Germination (soybean seeds; Cold Stress (15° C.), 10^−6M × 4 Times, 44 HAP): 81a %
- Soybean Seed Germination (soybean seeds; Cold Stress (15° C.), 10^−6M × 4 Times, 50 HAP): 90a %
- Soybean Seed Germination (soybean seeds; Cold Stress (15° C.), 10^−6M × 4 Times, 60 HAP): 97a %
- Soybean Seed Germination (soybean seeds; Cold Stress (15° C.), 10^−6M, 30 HAP): 26a %
- Soybean Seed Germination (soybean seeds; Cold Stress (15° C.), 10^−6M, 36 HAP): 58a %
- Soybean Seed Germination (soybean seeds; Cold Stress (15° C.), 10^−6M, 44 HAP): 80a %
- Soybean Seed Germination (soybean seeds; Cold Stress (15° C.), 10^−6M, 50 HAP): 90a %
- Soybean Seed Germination (soybean seeds; Cold Stress (15° C.), 10^−6M, 60 HAP): 96a %
- Soybean Seed Germination (soybean seeds; Cold Stress (15° C.), 10^−7M, 30 HAP): 23a %
- Soybean Seed Germination (soybean seeds; Cold Stress (15° C.), 10^−7M, 36 HAP): 51a %
- Soybean Seed Germination (soybean seeds; Cold Stress (15° C.), 10^−7M, 44 HAP): 84a %
- Soybean Seed Germination (soybean seeds; Cold Stress (15° C.), 10^−7M, 50 HAP): 91a %
- Soybean Seed Germination (soybean seeds; Cold Stress (15° C.), 10^−7M, 60 HAP): 95a %
- Soybean Seed Germination (soybean seeds; Non-Stressed, 10^−6M × 4 Times, 27 HAP): 72a %
- Soybean Seed Germination (soybean seeds; Non-Stressed, 10^−6M × 4 Times, 34 HAP): 88a %
- Soybean Seed Germination (soybean seeds; Non-Stressed, 10^−6M × 4 Times, 45 HAP): 94a %
- Soybean Seed Germination (soybean seeds; Non-Stressed, 10^−6M, 27 HAP): 70a %
- Soybean Seed Germination (soybean seeds; Non-Stressed, 10^−6M, 34 HAP): 93a %
- Soybean Seed Germination (soybean seeds; Non-Stressed, 10^−6M, 45 HAP): 97a %
- Soybean Seed Germination (soybean seeds; Salt Stress (100 mM NaCl), 10^−6M × 4 Times, 27 HAP): 17a %
- Soybean Seed Germination (soybean seeds; Salt Stress (100 mM NaCl), 10^−6M × 4 Times, 34 HAP): 76ab %
- Soybean Seed Germination (soybean seeds; Salt Stress (100 mM NaCl), 10^−6M × 4 Times, 45 HAP): 89ab %
- Soybean Seed Germination (soybean seeds; Salt Stress (100 mM NaCl), 10^−6M × 4 Times, 55 HAP): 96a %
- Soybean Seed Germination (soybean seeds; Salt Stress (100 mM NaCl), 10^−6M × 4 Times, 65 HAP): 99a %
- Soybean Seed Germination (soybean seeds; Salt Stress (100 mM NaCl), 10^−6M, 27 HAP): 22a %
- Soybean Seed Germination (soybean seeds; Salt Stress (100 mM NaCl), 10^−6M, 34 HAP): 73ab %
- Soybean Seed Germination (soybean seeds; Salt Stress (100 mM NaCl), 10^−6M, 45 HAP): 83ab %
- Soybean Seed Germination (soybean seeds; Salt Stress (100 mM NaCl), 10^−6M, 55 HAP): 95a %
- Soybean Seed Germination (soybean seeds; Salt Stress (100 mM NaCl), 10^−6M, 65 HAP): 99a %
- Potato Emergence ([1]; 10^−6M seed piece treatment, 15 DAP): 16b %
- Potato Emergence ([1]; 10^−6M seed piece treatment, 17 DAP): 41b %
- Potato Emergence ([1]; 10^−6M seed piece treatment, 21 DAP): 68c %
- Potato Emergence ([1]; 10^−6M seed piece treatment, 29 DAP): 72c %
- Potato Flowering ([1]; 10^−6M seed piece treatment, 42 DAP): 19a %
- Potato Flowering ([1]; 10^−6M seed piece treatment, 50 DAP): 53ab %
- Marketable Potato Yield for One Row of Plot ([1]; 10^−6M seed piece treatment): 17.92b Kg/Plot
- Potato Emergence ([1]; 10^−7M seed piece treatment, 15 DAP): 9ab %
- Potato Emergence ([1]; 10^−7M seed piece treatment, 17 DAP): 30ab %
- Potato Emergence ([1]; 10^−7M seed piece treatment, 21 DAP): 48b %
- Potato Emergence ([1]; 10^−7M seed piece treatment, 29 DAP): 52b %
- Potato Flowering ([1]; 10^−7M seed piece treatment, 42 DAP): 20a %
- Potato Flowering ([1]; 10^−7M seed piece treatment, 50 DAP): 47ab %
- Marketable Potato Yield for One Row of Plot ([1]; 10^−7M seed piece treatment): 16.05b Kg/Plot
- Potato Emergence ([1]; 10^−8M seed piece treatment, 15 DAP): 13ab %
- Potato Emergence ([1]; 10^−8M seed piece treatment, 17 DAP): 30ab %
- Potato Emergence ([1]; 10^−8M seed piece treatment, 21 DAP): 45b %
- Potato Emergence ([1]; 10^−8M seed piece treatment, 29 DAP): 55b %
- Potato Flowering ([1]; 10^−8M seed piece treatment, 42 DAP): 11a %
- Potato Flowering ([1]; 10^−8M seed piece treatment, 50 DAP): 54ab %
- Marketable Potato Yield for One Row of Plot ([1]; 10^−8M seed piece treatment): 13.80ab Kg/Plot
